The test system of assay [1] is Blood. Kind of assay: Inhibition of LPS-stimulated TNFalpha production in human whole blood. The assay is classed as functional, tissue-based.
Assay [2] concerns the target T1, Matrilysin (Homo sapiens, UniProt P09237).
T1 sequence (P09237 whole entry): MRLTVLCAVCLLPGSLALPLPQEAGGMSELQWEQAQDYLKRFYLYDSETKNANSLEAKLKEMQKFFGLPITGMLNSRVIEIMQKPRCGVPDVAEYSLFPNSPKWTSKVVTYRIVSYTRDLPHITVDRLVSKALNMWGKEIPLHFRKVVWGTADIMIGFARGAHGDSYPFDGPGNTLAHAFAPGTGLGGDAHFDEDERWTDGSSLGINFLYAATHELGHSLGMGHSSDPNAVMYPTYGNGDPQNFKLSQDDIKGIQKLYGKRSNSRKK
Nature of the assay: Inhibition of MMP7.

The target of assay [3] is Disintegrin and metalloproteinase domain-containing protein 17 (Sus scrofa, UniProt O77636). Nature of the assay: Inhibition of porcine TACE.
Assay [4] concerns the target Macrophage metalloelastase (Homo sapiens, UniProt P39900). Kind of assay: Inhibition of MMP12.
Assay [5] has as its target Stromelysin-1 (Homo sapiens, UniProt P08254). Nature of the assay: Inhibition of MMP3.
For assay [6], the species on record is Homo sapiens. Kind of assay: Inhibition of aggrecanase at 1 uM.
Assay [7] has as its target 72 kDa type IV collagenase (Homo sapiens, UniProt P08253). Kind of assay: Inhibition of MMP2.

A value given as a limit tells only on which side of the number the result lay.

Stromelysin-1, sequence (P08254 whole entry): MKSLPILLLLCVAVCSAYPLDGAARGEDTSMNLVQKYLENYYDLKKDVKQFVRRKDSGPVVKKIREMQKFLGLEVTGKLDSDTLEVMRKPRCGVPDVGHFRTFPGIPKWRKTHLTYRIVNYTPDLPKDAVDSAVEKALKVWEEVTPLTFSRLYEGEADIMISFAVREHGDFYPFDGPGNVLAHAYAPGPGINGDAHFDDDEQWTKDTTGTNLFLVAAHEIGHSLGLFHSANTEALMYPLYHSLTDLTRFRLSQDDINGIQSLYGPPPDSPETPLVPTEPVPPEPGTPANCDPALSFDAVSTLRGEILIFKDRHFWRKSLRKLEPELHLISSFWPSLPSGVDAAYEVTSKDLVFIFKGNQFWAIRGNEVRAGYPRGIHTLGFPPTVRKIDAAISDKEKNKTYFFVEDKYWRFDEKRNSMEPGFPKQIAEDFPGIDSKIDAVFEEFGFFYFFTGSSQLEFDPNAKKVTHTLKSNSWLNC
Macrophage metalloelastase, sequence (P39900 whole entry): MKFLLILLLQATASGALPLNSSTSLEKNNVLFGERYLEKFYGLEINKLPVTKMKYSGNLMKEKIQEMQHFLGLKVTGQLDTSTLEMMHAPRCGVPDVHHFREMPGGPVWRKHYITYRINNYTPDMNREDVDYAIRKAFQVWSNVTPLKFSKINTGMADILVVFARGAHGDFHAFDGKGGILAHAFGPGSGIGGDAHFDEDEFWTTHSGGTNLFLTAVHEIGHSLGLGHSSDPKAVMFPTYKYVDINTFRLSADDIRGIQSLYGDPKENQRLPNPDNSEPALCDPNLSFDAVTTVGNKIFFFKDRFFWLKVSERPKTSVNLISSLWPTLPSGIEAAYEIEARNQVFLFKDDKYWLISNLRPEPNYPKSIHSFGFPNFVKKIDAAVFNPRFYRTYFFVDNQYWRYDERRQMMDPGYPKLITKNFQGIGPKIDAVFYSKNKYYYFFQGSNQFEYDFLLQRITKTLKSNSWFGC
72 kDa type IV collagenase, sequence (P08253 whole entry): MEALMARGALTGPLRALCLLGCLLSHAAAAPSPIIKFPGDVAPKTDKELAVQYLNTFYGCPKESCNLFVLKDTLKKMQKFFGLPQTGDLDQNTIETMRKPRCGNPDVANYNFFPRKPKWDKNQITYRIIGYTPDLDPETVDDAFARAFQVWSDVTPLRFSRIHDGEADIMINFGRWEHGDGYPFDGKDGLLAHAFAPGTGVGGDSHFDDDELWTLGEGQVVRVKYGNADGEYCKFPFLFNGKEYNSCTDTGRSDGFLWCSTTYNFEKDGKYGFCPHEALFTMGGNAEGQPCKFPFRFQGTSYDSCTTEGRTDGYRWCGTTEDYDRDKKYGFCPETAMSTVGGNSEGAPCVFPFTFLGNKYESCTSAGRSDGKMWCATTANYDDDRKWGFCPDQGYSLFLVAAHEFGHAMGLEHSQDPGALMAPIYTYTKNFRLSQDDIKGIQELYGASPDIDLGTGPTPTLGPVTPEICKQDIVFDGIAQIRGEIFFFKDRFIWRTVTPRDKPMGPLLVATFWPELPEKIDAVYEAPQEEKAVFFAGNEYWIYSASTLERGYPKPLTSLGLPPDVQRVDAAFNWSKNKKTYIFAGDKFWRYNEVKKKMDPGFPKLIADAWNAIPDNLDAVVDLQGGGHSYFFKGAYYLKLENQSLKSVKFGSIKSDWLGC
Disintegrin and metalloproteinase domain-containing protein 17, sequence (O77636 whole entry, the tested form may be a part): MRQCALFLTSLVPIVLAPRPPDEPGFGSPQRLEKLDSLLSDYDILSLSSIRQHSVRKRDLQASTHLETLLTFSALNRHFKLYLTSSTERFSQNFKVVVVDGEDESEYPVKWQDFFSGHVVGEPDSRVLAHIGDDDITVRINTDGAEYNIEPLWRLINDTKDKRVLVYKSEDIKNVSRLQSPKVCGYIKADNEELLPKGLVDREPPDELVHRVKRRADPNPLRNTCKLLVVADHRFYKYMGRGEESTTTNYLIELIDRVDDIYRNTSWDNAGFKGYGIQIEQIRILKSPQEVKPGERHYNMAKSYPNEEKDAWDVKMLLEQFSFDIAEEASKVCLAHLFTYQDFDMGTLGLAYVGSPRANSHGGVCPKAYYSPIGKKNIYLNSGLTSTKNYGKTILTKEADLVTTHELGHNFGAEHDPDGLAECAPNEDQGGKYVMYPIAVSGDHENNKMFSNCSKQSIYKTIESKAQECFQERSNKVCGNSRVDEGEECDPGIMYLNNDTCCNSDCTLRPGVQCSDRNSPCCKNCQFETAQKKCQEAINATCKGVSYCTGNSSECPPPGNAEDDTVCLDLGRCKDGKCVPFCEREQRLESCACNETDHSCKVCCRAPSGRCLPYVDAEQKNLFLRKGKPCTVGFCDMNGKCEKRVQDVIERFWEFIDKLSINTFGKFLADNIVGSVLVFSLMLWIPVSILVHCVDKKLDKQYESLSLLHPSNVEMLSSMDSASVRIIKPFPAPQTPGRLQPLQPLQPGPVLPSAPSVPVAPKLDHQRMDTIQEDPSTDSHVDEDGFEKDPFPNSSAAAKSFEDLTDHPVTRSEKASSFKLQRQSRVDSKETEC

For orientation: IC50 means the midpoint of a concentration-inhibition curve. The low end stands for greater potency, the high end for weaker potency. By Ki is commonly meant a measure of affinity in units of concentration, obtained from inhibition or displacement. The low end stands for a stronger hold on the target, the high end for a looser hold on the target. A word on the inhibition: it is the share of the control response that was lost under treatment. With `Cc1cc(COc2ccc(C(=O)NCC3(C4CCN(C5CCOCC5)CC4)C(=O)NC(=O)NC3=O)cc2)c2ccccc2n1`, the IC50 was greater than 50 µM in assay [1] and 0.031 µM in assay [3]. Also, the Ki was greater than 6.37 µM in assay [2], greater than 6.02 µM in assay [4], greater than 4.5 µM in assay [5] and greater than 3.33 µM in assay [7]. Also, the inhibition in assay [6] came out at 5%.
On to `CCC1(CNC(=O)c2ccc(OCc3cc(C)nc4ccccc34)cc2)C(=O)NC(=O)NC1=O`, for which the concentration for half-maximal inhibition (IC50) in assay [1] was greater than 50 µM; in assay [3], 0.016 µM. Moreover, the Ki was greater than 6.37 µM in assay [2], 0.21 µM in assay [4], greater than 4.5 µM in assay [5] and 0.2 µM in assay [7]. The same compound came in with an inhibition in assay [6] of 18%.
`Cc1cc(COc2ccc(C(=O)NCC3(N4CCN(C(=O)C(C)(C)C)CC4)C(=O)NC(=O)NC3=O)cc2)c2ccccc2n1`: the IC50 worked out at 38 µM in assay [1] and 0.029 µM in assay [3]. Further, the Ki is greater than 6.37 µM in assay [2], 0.05 µM in assay [4], greater than 4.5 µM in assay [5] and 0.02 µM in assay [7]. The compound also returned an inhibition in assay [6] of 7%.
Take `Cc1cc(COc2ccc(C(=O)NC3CN(C(=O)C(C)(C)C)CC34C(=O)NC(=O)NC4=O)cc2)c2ccccc2n1` (stereo not drawn): the IC50 was greater than 50 µM in assay [1] and 0.111 µM in assay [3]. For the same compound, the Ki in assay [2] is greater than 6.37 µM; in assay [4], greater than 6.02 µM; in assay [5], greater than 4.5 µM; in assay [7], greater than 3.33 µM. The compound further came in with an inhibition in assay [6] of 53%.
With `Cc1cc(COc2ccc(NC(=O)CC3(C)C(=O)NC(=O)NC3=O)cc2)c2ccccc2n1`, the IC50 in assay [3] worked out at 12 µM.
Consider `Cc1cc(COc2ccc(C(=O)NCC3(N4CCN(Cc5ccccc5)CC4)C(=O)NC(=O)NC3=O)cc2)c2ccccc2n1`, for which the figures for the IC50 in assay [1] and in assay [3] were greater than 50 µM and 0.014 µM, respectively. The inhibition constant Ki is greater than 6.37 µM in assay [2], 4.1 µM in assay [4], greater than 4.5 µM in assay [5] and 2.7 µM in assay [7]. Besides, in assay [6], the inhibition was found to be 22%.
As for `Cc1cc(COc2ccc(C(=O)NCC3(C4CCN(C(=O)OC(C)(C)C)CC4)C(=O)NC(=O)NC3=O)cc2)c2ccccc2n1`, the IC50 turned out to be 35 µM in assay [1] and 0.047 µM in assay [3]. Besides, the Ki in assay [2] is greater than 6.37 µM; in assay [4], greater than 6.02 µM; in assay [5], greater than 4.5 µM; in assay [7] it was greater than 3.33 µM. For the same compound, the inhibition in assay [6] came to 0%.
For the compound `Cc1cc(COc2ccc(C(=O)NCC3(C4CCN(C(C)C)CC4)C(=O)NC(=O)NC3=O)cc2)c2ccccc2n1`, the IC50 is greater than 50 µM in assay [1] and 0.052 µM in assay [3]. Further, the Ki in assay [2] was greater than 6.37 µM; in assay [4], greater than 6.02 µM; in assay [5], greater than 4.5 µM; in assay [7], greater than 3.33 µM. In assay [6], the inhibition was 21%.
In the case of `Cc1cc(COc2ccc(C(=O)CCC3(C)C(=O)NC(=O)NC3=O)cc2)c2ccccc2n1`, the IC50 in assay [3] was determined as 0.8 µM.
`Cc1cc(COc2ccc(C(=O)NCC3(C4CCN(S(C)(=O)=O)CC4)C(=O)NC(=O)NC3=O)cc2)c2ccccc2n1`: the values for the 50% inhibitory concentration (IC50) in assay [1] and in assay [3] were greater than 50 µM and 0.029 µM, respectively. In addition, the Ki is greater than 6.37 µM in assay [2], greater than 6.02 µM in assay [4], greater than 4.5 µM in assay [5] and greater than 3.33 µM in assay [7]. Besides, the inhibition in assay [6] was 36%.
`Cc1cc(COc2ccc(C(=O)NCC3(N4CCN(C(=O)c5cccnc5)CC4)C(=O)NC(=O)NC3=O)cc2)c2ccccc2n1`: the results for the IC50 in assay [1] and in assay [3] were 43 µM and 0.01 µM, respectively. For the same compound, the Ki in assay [2] is greater than 6.37 µM; in assay [4], 4.64 µM; in assay [5] it was greater than 4.5 µM; in assay [7], greater than 3.33 µM. In assay [6], the inhibition was 36%.
`Cc1cc(COc2ccc(C(=O)NCC3(C4CCN(C)CC4)C(=O)NC(=O)NC3=O)cc2)c2ccccc2n1`: the figures for the concentration for half-maximal inhibition (IC50) in assay [1] and in assay [3] were greater than 50 µM and 0.057 µM, respectively. For the same compound, the Ki in assay [2] is greater than 6.37 µM; in assay [4], greater than 6.02 µM; in assay [5] it was greater than 4.5 µM; in assay [7] it was greater than 3.33 µM. This compound showed an inhibition in assay [6] of 15%.
With `C#CCN1CCN(C2(CNC(=O)c3ccc(OCc4cc(C)nc5ccccc45)cc3)C(=O)NC(=O)NC2=O)CC1`, the IC50 in assay [1] is greater than 50 µM; in assay [3], 0.062 µM. The Ki in assay [2] is greater than 6.37 µM; in assay [4], greater than 6.02 µM; in assay [5], greater than 4.5 µM; in assay [7] it was greater than 3.33 µM. In assay [6], this compound displayed an inhibition of 26%.
In assay [3], `Cc1cc(COc2ccc(C3(C)C(=O)NC(=O)NC3=O)cc2)c2ccccc2n1` showed an IC50 of 1.03 µM.
Still for that read-out and setting: the figure for `Cc1cc(COc2ccc(OC3(C)C(=O)NC(=O)NC3=O)cc2)c2ccccc2n1` is 1.3 µM.
`Cc1cc(COc2ccc(C(=O)NCC3(N4CCN(C(C)C)CC4)C(=O)NC(=O)NC3=O)cc2)c2ccccc2n1`: the results for the IC50 in assay [1] and in assay [3] were greater than 50 µM and 0.007 µM, respectively. In addition, the Ki is greater than 6.37 µM in assay [2], greater than 6.02 µM in assay [4], greater than 4.5 µM in assay [5] and greater than 3.33 µM in assay [7]. Also, in assay [6], the inhibition is 20%.
In the case of `Cc1cc(COc2ccc(/C=C/CC3(C)C(=O)NC(=O)NC3=O)cc2)c2ccccc2n1`, the IC50 in assay [3] is 11 µM.
As to `Cc1cc(COc2ccc(C(=O)NCC3(C(C)C)C(=O)NC(=O)NC3=O)cc2)c2ccccc2n1`, the half-inhibitory concentration (IC50) in assay [1] is greater than 50 µM; in assay [3], 0.019 µM. Besides, the Ki is greater than 6.37 µM in assay [2], greater than 6.02 µM in assay [4], greater than 4.5 µM in assay [5] and 0.93 µM in assay [7]. Moreover, the inhibition in assay [6] came to 11%.
Consider `Cc1cc(COc2ccc(C(=O)NC3CCCCC34C(=O)NC(=O)NC4=O)cc2)c2ccccc2n1` (stereo not drawn), for which, in assay [3], 0.138 µM corresponded to half-maximal inhibition (IC50). Besides, in assay [6], the inhibition came to 29%. The compound further showed a Ki in assay [7] of 0.11 µM.
`Cc1cc(COc2ccc(C(=O)NCC3(C4CCN(C(=O)C(C)(C)C)CC4)C(=O)NC(=O)NC3=O)cc2)c2ccccc2n1`: the values for the IC50 in assay [1] and in assay [3] were 39 µM and 0.013 µM, respectively. Further, the Ki in assay [2] was greater than 6.37 µM; in assay [4], greater than 6.02 µM; in assay [5], greater than 4.5 µM; in assay [7] it was greater than 3.33 µM. In assay [6], this compound returned an inhibition of 10%.
On to `Cc1cc(COc2ccc(C(=O)NCC3(N4CCN(C)CC4)C(=O)NC(=O)NC3=O)cc2)c2ccccc2n1`, for which the IC50 was greater than 50 µM in assay [1] and 0.058 µM in assay [3]. Besides, the Ki is greater than 6.37 µM in assay [2], greater than 6.02 µM in assay [4], greater than 4.5 µM in assay [5] and greater than 3.33 µM in assay [7]. The same compound displayed an inhibition in assay [6] of 21%.
Consider `Cc1cc(COc2ccc(CC(=O)NCC3(C)C(=O)NC(=O)NC3=O)cc2)c2ccccc2n1`, for which the 50% inhibitory concentration (IC50) in assay [3] is greater than 100 µM.
`Cc1cc(COc2ccc(C(=O)NC(c3ccncc3)C3(C)C(=O)NC(=O)NC3=O)cc2)c2ccccc2n1` (stereo not drawn) yielded an IC50 in assay [3] of 2.36 µM.
Take `Cc1cc(COc2ccc(C(=O)NC3CCCC34C(=O)NC(=O)NC4=O)cc2)c2ccccc2n1` (stereo not drawn): the IC50 in assay [1] is greater than 50 µM; in assay [3], 0.024 µM. The compound also yielded an inhibition in assay [6] of 0%. In assay [7], this compound registered a Ki greater than 3.33 µM.
Compound `Cc1cc(COc2ccc(CCCC3(C)C(=O)NC(=O)NC3=O)cc2)c2ccccc2n1` gave an IC50 in assay [3] greater than 100 µM.
Take `Cc1cc(COc2ccc(CC3(C)C(=O)NC(=O)NC3=O)cc2)c2ccccc2n1`: the IC50 in assay [3] stood at 2.2 µM.
Consider `Cc1cc(COc2ccc(C(=O)NC3(C)C(=O)NC(=O)NC3=O)cc2)c2ccccc2n1`, for which the IC50 in assay [3] is greater than 100 µM.
On the same count and under the same terms, for `Cc1cc(COc2ccc(CCC3(C)C(=O)NC(=O)NC3=O)cc2)c2ccccc2n1` the value was 49 µM.

Values taken from ChEMBL document CHEMBL1138371, “Discovery of low nanomolar non-hydroxamate inhibitors of tumor necrosis factor-alpha converting enzyme (TACE)” (Bioorg Med Chem Lett, 2007).
